The record followed here is patent US9624200B2, “Therapeutic piperazines” (DART NEUROSCIENCE (CAYMAN) LTD., priority 2006, dated 2017).

The subject of the test is PDE4 from human U-937 cells. Put plainly: PDE4 Inhibition Assay. It counts as biochemical. Particulars: 1 μM cAMP, [3H]-cAMP, read-out: Potency Class (Inhibitory Concentration) in the PDE4 assay. The protocol: PDE4 from human U-937 cells was used (see T. J. Torphy, et al., J. Pharmacol. Exp. Ther., 1992, 263, 1195-1205). Test compound at various concentration and/or vehicle was preincubated with 2 μg/ml enzyme in Tris-HCl buffer pH 7.5 for 15 minutes at 25° C. The reaction was initiated by addition of 1 1 μM cAMP and 0.01 1 μM [^3H]-cAMP for another 20 minute incubation period and terminated at 100° C. The resulting [^3H]-AMP was converted to [^3H]-adenosine by addition of snake venom nucleotidase and separated by AG1-X2 resin. An aliquot was removed and counted to determine the amount of [^3H]-adenosine formed. Results were converted to percent inhibition and IC so determined using XLfit from IDBS (ID Business Solutions Ltd., 2 Occam Court, Surrey Research Park, Guildford, Surrey, GU2 7QB UK).
Representative compounds of the present invention were tested and found to have significant PDE4 inhibition in this assay.
Take `COc1ccc(N2CCN(C(=O)Cc3cc[nH]c3)[C@@H](Cc3ccccc3)C2)cc1OC(C)C` [Compound 328, (S)-1-(2-benzyl-4-(3-isopropoxy-4-methoxyphenyl)piperazin-1-yl)-2-(1H-pyrrol-3-yl)ethanone]: the IC50 is less than 200 nM.

On to `COc1ccc(N2CCN(C(=O)Cc3nc(C)n[nH]3)[C@@H](Cc3ccccc3)C2)cc1OC(C)C` [Compound 330, (S)-1-(2-benzyl-4-(3-isopropoxy-4-methoxyphenyl)piperazin-1-yl)-2-(3-methyl-1H-1,2,4-triazol-5-yl)ethanone], for which the IC50 was less than 200 nM.

With `Cc1n[nH]c(CC(=O)N2CCN(c3ccc(OC(F)F)c(OC(F)F)c3)C[C@@H]2Cc2ccccc2)n1` [Compound 332, (S)-1-(2-benzyl-4-(3,4-bis(difluoromethoxy)phenyl)piperazin-1-yl)-2-(3-methyl-1H-1,2,4-triazol-5-yl)ethanone], the IC50 was less than 200 nM.

As to `COc1ccc(N2CCN(C(=O)Cn3ccnn3)[C@@H](Cc3ccccc3)C2)cc1OC1CCCC1` [Compound 334, (S)-1-(2-benzyl-4-(3-(cyclopentyloxy)-4-methoxyphenyl)piperazin-1-yl)-2-(1H-1,2,3-triazol-1-yl)ethanone], the IC50 is more than 1000 nM.

Regarding `COc1ccc(N2CCN(C(=O)Cc3nn[nH]n3)[C@@H](Cc3ccccc3)C2)cc1OC1CCC1` [Compound 335, (S)-1-(2-benzyl-4-(3-cyclobutoxy-4-methoxyphenyl)piperazin-1-yl)-2-(2H-tetrazol-5-yl)ethanone], the IC50 is less than 200 nM.

In the case of `COc1ccc(N2CCN(C(=O)Cc3n[nH]c([N+](=O)[O-])n3)[C@@H](Cc3ccccc3)C2)cc1OC(C)C` [Compound 336, (S)-1-(2-benzyl-4-(3-isopropoxy-4-methoxyphenyl)piperazin-1-yl)-2-(5-nitro-1H-1,2,4-triazol-3-yl)ethanone], the IC50 was more than 1000 nM.

On to `COc1ccc(N2CCN(C(=O)Cc3nc(N)n[nH]3)[C@@H](Cc3ccccc3)C2)cc1OC(C)C` [Compound 337, (S)-2-(3-amino-1H-1,2,4-triazol-5-yl)-1-(2-benzyl-4-(3-isopropoxy-4-methoxyphenyl)piperazin-1-yl)ethanone], for which the IC50 was less than 200 nM.

Regarding `COc1ccc(N2CCN(C(=O)Cc3n[nH]c([N+](=O)[O-])n3)[C@@H](Cc3ccccc3)C2)cc1OC1CCC1` [Compound 338, (S)-1-(2-benzyl-4-(3-cyclobutoxy-4-methoxyphenyl)piperazin-1-yl)-2-(5-nitro-1H-1,2,4-triazol-3-yl)ethanone], the IC50 was in the range of 200 to 1000 nM.

For `COc1ccc(N2CCN(C(=O)Cc3n[nH]c(N)n3)[C@@H](Cc3ccccc3)C2)cc1OC1CCC1` [Compound 339, (S)-2-(5-amino-1H-1,2,4-triazol-3-yl)-1-(2-benzyl-4-(3-cyclobutoxy-4-methoxyphenyl)piperazin-1-yl)ethanone], the IC50 is less than 200 nM.

On to `COc1ccc(N2CCN(C(=O)Cc3ncccn3)[C@@H](Cc3ccccc3)C2)cc1OC1CCC1` [Compound 340, (S)-1-(2-benzyl-4-(3-cyclobutoxy-4-methoxyphenyl)piperazin-1-yl)-2-(pyrimidin-2-yl)ethanone], for which the IC50 is less than 200 nM.

On to `COc1ccc(N2CCN(C(=O)Cc3ccccn3)[C@@H](Cc3ccccc3)C2)cc1OC(C)C` [Compound 341, (S)-1-(2-benzyl-4-(3-isopropoxy-4-methoxyphenyl)piperazin-1-yl)-2-(pyridin-2-yl)ethanone], for which the IC50 was in the range of 200 to 1000 nM.

With `COc1ccc(N2CCN(C(=O)Cc3ccccn3)[C@@H](Cc3ccccc3)C2)cc1OC1CCC1` [Compound 342, (S)-1-(2-benzyl-4-(3-cyclobutoxy-4-methoxyphenyl)piperazin-1-yl)-2-(pyridin-2-yl)ethanone], the IC50 is less than 200 nM.

Take `COc1ccc(N2CCN(C(=O)Cc3ncccn3)[C@@H](Cc3ccccc3)C2)cc1OC(C)C` [Compound 343, (S)-1-(2-benzyl-4-(3-isopropoxy-4-methoxyphenyl)piperazin-1-yl)-2-(pyrimidin-2-yl)ethanone]: the IC50 lay in the range of 200 to 1000 nM.

In the case of `O=C(Cc1c[nH]cn1)N1CCN(c2ccc(OC(F)F)c(OC3CCC3)c2)C[C@@H]1Cc1ccccc1` [Compound 344, (S)-1-(2-benzyl-4-(3-cyclobutoxy-4-(difluoromethoxy)phenyl)piperazin-1-yl)-2-(1H-imidazol-4-yl)ethanone], the IC50 is less than 200 nM.

Regarding `Cc1nc(CC(=O)N2CCN(c3ccc(OC(F)F)c(OC4CCC4)c3)C[C@@H]2Cc2ccccc2)n[nH]1` [Compound 345, (S)-1-(2-benzyl-4-(3-cyclobutoxy-4-(difluoromethoxy)phenyl)piperazin-1-yl)-2-(5-methyl-1H-1,2,4-triazol-3-yl)ethanone], the IC50 was less than 200 nM.

Take `COc1ccc(N2CCN(C(=O)Cc3n[nH]c(C)n3)[C@@H](Cc3ccccc3)C2)cc1OC(F)F` [Compound 346, (S)-1-(2-benzyl-4-(3-(difluoromethoxy)-4-methoxyphenyl)piperazin-1-yl)-2-(5-methyl-1H-1,2,4-triazol-3-yl)ethanone]: the IC50 was less than 200 nM.

Consider `COc1ccc(N2CCN(C(=O)Cc3c[nH]cn3)[C@@H](Cc3ccccc3)C2)cc1OC(F)F` [Compound 347, (S)-1-(2-benzyl-4-(3-(difluoromethoxy)-4-methoxyphenyl)piperazin-1-yl)-2-(1H-imidazol-4-yl)ethanone], for which the IC50 is more than 1000 nM.

Take `CNCCC(=O)N1CCN(c2ccc(OC)c(OC3CCC3)c2)C[C@@H]1Cc1ccccc1` [Compound 348, (S)-1-(2-benzyl-4-(3-cyclobutoxy-4-methoxyphenyl)piperazin-1-yl)-3-(methylamino)propan-1-one]: the IC50 is more than 1000 nM.

`COc1ccc(N2CCN(C(=O)CN)[C@@H](Cc3ccccc3)C2)cc1OC1CCC1` [Compound 349, (S)-2-amino-1-(2-benzyl-4-(3-cyclobutoxy-4-methoxyphenyl)piperazin-1-yl)ethanone]: the IC50 was more than 1000 nM.

As for `CNCC(=O)N1CCN(c2ccc(OC)c(OC3CCC3)c2)C[C@@H]1Cc1ccccc1` [Compound 350, (S)-1-(2-benzyl-4-(3-cyclobutoxy-4-methoxyphenyl)piperazin-1-yl)-2-(methylamino)ethanone], the IC50 is more than 1000 nM.

As to `CCc1nn(C2CCC2)c2cc(N3CCN(C(=O)CN)[C@@H](Cc4ccccc4)C3)ccc12` [Compound 351, (S)-2-amino-1-(2-benzyl-4-(1-cyclobutyl-3-ethyl-1H-indazol-6-yl)piperazin-1-yl)ethanone], the IC50 was more than 1000 nM.

Take `CCc1nn(C2CCC2)c2cc(N3CCN(C(=O)Cc4ccccn4)[C@@H](Cc4ccccc4)C3)ccc12` [Compound 352, (S)-1-(2-benzyl-4-(1-cyclobutyl-3-ethyl-1H-indazol-6-yl)piperazin-1-yl)-2-(pyridin-2-yl)ethanone]: the IC50 was more than 1000 nM.

In the case of `CCc1nn(C2CCC2)c2cc(N3CCN(C(=O)Cc4ncccn4)[C@@H](Cc4ccccc4)C3)ccc12` [Compound 353, (S)-1-(2-benzyl-4-(1-cyclobutyl-3-ethyl-1H-indazol-6-yl)piperazin-1-yl)-2-(pyrimidin-2-yl)ethanone], the IC50 was more than 1000 nM.

On to `CCc1nn(C2CCC2)c2cc(N3CCN(C(=O)Cc4n[nH]c(N)n4)[C@@H](Cc4ccccc4)C3)ccc12` [Compound 355, (S)-2-(5-amino-1H-1,2,4-triazol-3-yl)-1-(2-benzyl-4-(1-cyclobutyl-3-ethyl-1H-indazol-6-yl)piperazin-1-yl)ethanone], for which the IC50 was less than 200 nM.

Consider `O=C(Cc1ncccn1)N1CCN(c2ccc(OC(F)F)c(OC3CCC3)c2)C[C@@H]1Cc1ccccc1` [Compound 356, (S)-1-(2-benzyl-4-(3-cyclobutoxy-4-(difluoromethoxy)phenyl)piperazin-1-yl)-2-(pyrimidin-2-yl)ethanone], for which the IC50 lay in the range of 200 to 1000 nM.

As to `COc1ccc(N2CCN(Cc3sc(C)nc3C)[C@@H](Cc3ccccc3)C2)cc1OC1CCCC1` [Compound 359, (S)-5-((2-benzyl-4-(3-(cyclopentyloxy)-4-methoxyphenyl)piperazin-1-yl)methyl)-2,4-dimethylthiazole], the IC50 is more than 1000 nM.

Regarding `COc1ccc(N2CCN(C(=O)c3ccc(CO)cc3)[C@@H](Cc3ccccc3)C2)cc1OC1CCCC1` [Compound 360, (S)-(2-benzyl-4-(3-(cyclopentyloxy)-4-methoxyphenyl)piperazin-1-yl)(4-(hydroxymethyl)phenyl)methanone], the IC50 was more than 1000 nM.

Consider `COc1ccc(N2CCN(Cc3cccc(O)c3)[C@@H](Cc3ccccc3)C2)cc1OC1CCCC1` [Compound 361], for which the IC50 was more than 1000 nM.

`COc1ccc(N2CCN(Cc3ccc(O)cc3)[C@@H](Cc3ccccc3)C2)cc1OC1CCCC1` [Compound 362, (S)-4-((2-benzyl-4-(3-(cyclopentyloxy)-4-methoxyphenyl)piperazin-1-yl)methyl)phenol]: the IC50 was more than 1000 nM.

Take `COc1ccc(N2CCN(C(=O)Cc3c[nH]cn3)[C@@H](CC(C)C)C2)cc1OC1CCCC1` [Compound 364, (S)-1-(4-(3-(cyclopentyloxy)-4-methoxyphenyl)-2-isobutylpiperazin-1-yl)-2-(1H-imidazol-4-yl)ethanone]: the IC50 is less than 200 nM.

In the case of `CC(C)C[C@H]1CN(c2ccc(OC(F)F)c(OCC3CC3)c2)CCN1C(=O)Cc1c[nH]cn1` [Compound 365, (S)-1-(4-(3-(cyclopropylmethoxy)-4-(difluoromethoxy)phenyl)-2-isobutylpiperazin-1-yl)-2-(1H-imidazol-4-yl)ethanone], the IC50 was in the range of 200 to 1000 nM.
